{
  "source": "patent US9011853B2",
  "about": "“B7-H4 fusion proteins and methods of use thereof” (Amplimmune, Inc., priority 2009, dated 2015)",
  "tested_on": "serum levels of 58 analytes",
  "test": "Serum biomarker analysis, quantitative immunoassay multi-analyte profiling (Rules-Based Medicine RodentMAP v2.9), AA#80",
  "type": "in vivo, mouse",
  "details": "serum, listed as Human LgG1 Control",
  "protocol": "In AA#80, serum samples were collected on Day 27, Day 34, Day 41 and Day 55 via the submandibular vein. Approximately 200 μL of blood per mouse was collected in Microtainer® serum separator tubes. Serum was removed following centrifugation and stored at <−65° C. until analysis.\nSelected serum samples were sent to Rules-Based Medicine (Austin, Tex.) for quantitative immunoassay multi-analyte profiling of serum samples, with the goal of identifying biomarkers that could be used to monitor disease progression and response to B7-H4-Ig treatment. Day 27, Day 34, and Day 41 sera from the three representative mice in the B7-H4-Ig group (tag #3332, 3334, and 3338) and three representative mice in the Synagis® group (tag #3324, 3329, and 3330) were analyzed for levels of 58 analytes using the RodentMAP v2.9 Testing Service.\nData from the Rules-Based Medicine analysis was analyzed using Microsoft Excel and GraphPad Prism software. T-tests were performed to compare the levels of each analyte in the B7-H4-Ig versus Synagis® treated samples. No correction was made for multiple comparisons. Additionally, correlation coefficients were calculated for each analyte versus disease score.",
  "note": "“And” between values parts separate entries of the source, which are not always exact repeats. Equal values may be shown once.",
  "data": [
    {"substance": "Synagis®: humanized monoclonal IgG antibody against the F protein of Respiratory Syncytial Virus; used as a human IgG1 isotype control [reference compound]", "values": [
      {"measurement": "MDC (Macrophage-Derived Chemokine)", "setting": "Day 41, LDD 21.85", "value": "1410 pg/mL and 1430 pg/mL and 1150 pg/mL"},
      {"measurement": "MCP-3 (Monocyte Chemoattractant Protein-3)", "setting": "Day 41, LDD 31.36", "value": "235 pg/mL and 236 pg/mL and 242 pg/mL"},
      {"measurement": "VEGF (Vescular Endotheial Cell Growth Factor)", "setting": "Day 41, LDD 38.2", "value": "150 pg/mL and 171 pg/mL and 212 pg/mL"},
      {"measurement": "IP-10 (Inducible Protein-10)", "setting": "Day 41, LDD 40.28", "value": "54.7 pg/mL and 68.1 pg/mL and 66.8 pg/mL"},
      {"measurement": "LIF (Leukemia Infabitory Factor)", "setting": "Day 41, LDD 43.6", "value": "1650 pg/mL and 1580 pg/mL and 1470 pg/mL"},
      {"measurement": "MCP-5 (Monocyte Chemoattractant Protein-5)", "setting": "Day 41, LDD 46.38", "value": "45.6 pg/mL and 47.4 pg/mL and 52.8 pg/mL"},
      {"measurement": "SCF (Stem Cell Factor)", "setting": "Day 41, LDD 75.17", "value": "214 pg/mL and 249 pg/mL and 201 pg/mL"},
      {"measurement": "MIP-1beta (Macrophage Inflammatory Protein-1beta)", "setting": "Day 41, LDD 77.65", "value": "144 pg/mL and 115 pg/mL and 152 pg/mL"},
      {"measurement": "Lymphotactin", "setting": "Day 41, LDD 85.48", "value": "178 pg/mL and 183 pg/mL and 194 pg/mL"},
      {"measurement": "VWF (Von Willebrand Factor)", "setting": "Day 41, LDD 98.6", "value": "131 ng/mL and 103 ng/mL and 111 ng/mL"},
      {"measurement": "M-CSF (Macrophage-Colony Stimulating Factor)", "setting": "Day 27, LDD 0.01795, individual mice", "value": "6.19 ng/mL and 6.6 ng/mL and 6.59 ng/mL"},
      {"measurement": "MIP-1gamma (Macrophage Inflammatory Protein-1gamma)", "setting": "Day 27, LDD 0.0736, individual mice", "value": "36.9 ng/mL and 37.1 ng/mL and 37.9 ng/mL"},
      {"measurement": "OSM (Oncostatin M)", "setting": "Day 27, LDD 0.13, individual mice", "value": "<low> (2×) and 0.0103 ng/ml"},
      {"measurement": "TNF-alpha (Tumor Necrosis Factor-alpha)", "setting": "Day 27, LDD 0.137, individual mice", "value": "0.0965 ng/ml and <low> (2×)"},
      {"measurement": "KC/GROalpha (Melanoma Growth Stimulatory Activity Protein)", "setting": "Day 27, LDD 0.1739, individual mice", "value": "0.0804 ng/mL and 0.0795 ng/mL and 0.0633 ng/mL"},
      {"measurement": "TEMP-1 (Tissue Inhibitor of Metalicproteinase Type-1)", "setting": "Day 27, LDD 0.18, individual mice", "value": "1.38 ng/mL and 1.13 ng/mL and 1.23 ng/mL"},
      {"measurement": "IL-5 (Interleukin-5)", "setting": "Day 27, LDD 0.194, individual mice", "value": "0.438 ng/mL and 0.403 ng/mL and 0.264 ng/mL"},
      {"measurement": "MIP-1alpha (Macrophage Inflammatory Protein-1alpha)", "setting": "Day 27, LDD 0.2255, individual mice", "value": "3.03 ng/ml (2×) and 3.32 ng/ml"},
      {"measurement": "IL-7 (Interleukin-7)", "setting": "Day 27, LDD 0.309, individual mice", "value": "0.0593 ng/ml and <low> (2×)"},
      {"measurement": "MIP-3beta (Macrophage Inflammatory Protein-3beta)", "setting": "Day 27, LDD 0.465, individual mice", "value": "2.89 ng/mL and 3.05 ng/mL and 2.6 ng/mL"},
      {"measurement": "RANTCS (Regulation Upon Activation Normal T-Cell Expressed and Secreted)", "setting": "Day 27, LDD 0.5, individual mice", "value": "0.0826 pg/ml and <low> (2×)"},
      {"measurement": "Tissue Factor", "setting": "Day 27, LDD 0.5175, individual mice", "value": "9.17 ng/ml (2×) and 10 ng/ml"},
      {"measurement": "MPO (Myeloperoxidase)", "setting": "Day 27, LDD 0.95, individual mice", "value": "216 ng/mL and 191 ng/mL and 265 ng/mL"},
      {"measurement": "SGOT (Serum Glutamic-Oxaloacetic Transaminase)", "setting": "Day 27, LDD 1.86, individual mice", "value": "84.6 µg/mL and 79.7 µg/mL and 75.4 µg/mL"},
      {"measurement": "TPO (Thromboproletin)", "setting": "Day 27, LDD 2.66, individual mice", "value": "38.9 ng/ml (2×) and 34.2 ng/ml"},
      {"measurement": "SAP (Setrum Amtyloid P)", "setting": "Day 27, LDD 5.4, individual mice", "value": "40.5 µg/mL and 34.2 µg/mL and 42.9 µg/mL"},
      {"measurement": "MIP-2 (Macrophage Inflammatory Protein-2)", "setting": "Day 27, LDD 7.174, individual mice", "value": "16.1 pg/mL and 22.2 pg/mL and 23.4 pg/mL"},
      {"measurement": "MMP-9 (Matrix Metalloproteinase-9)", "setting": "Day 27, LDD 10, individual mice", "value": "166 ng/mL and 177 ng/mL and 431 ng/mL"},
      {"measurement": "IL-6 (Interleukin-6)", "setting": "Day 27, LDD 13.852, individual mice", "value": "6.27 pg/ml (2×) and <low>"},
      {"measurement": "MCP-1 (Monocyte Chemoattractant Protein-1)", "setting": "Day 27, LDD 16.924, individual mice", "value": "74.4 pg/mL and 64.7 pg/mL and 70.5 pg/mL"},
      {"measurement": "VCAM-1 (Vescular Cell Adhesion Molecule-1)", "setting": "Day 27, LDD 19, individual mice", "value": "2260 ng/mL and 2080 ng/mL and 3160 ng/mL"},
      {"measurement": "MDC (Macrophage-Derived Chemokine)", "setting": "Day 27, LDD 21.85, individual mice", "value": "1250 pg/mL and 1310 pg/mL and 1070 pg/mL"},
      {"measurement": "Myoglobin", "setting": "Day 27, LDD 24, individual mice", "value": "8.96 ng/mL and 11.4 ng/mL and 23.8 ng/mL"},
      {"measurement": "MCP-3 (Monocyte Chemoattractant Protein-3)", "setting": "Day 27, LDD 31.36, individual mice", "value": "168 pg/mL and 149 pg/mL and 138 pg/mL"},
      {"measurement": "VEGF (Vescular Endotheial Cell Growth Factor)", "setting": "Day 27, LDD 38.2, individual mice", "value": "144 pg/mL and 136 pg/mL and 139 pg/mL"},
      {"measurement": "IP-10 (Inducible Protein-10)", "setting": "Day 27, LDD 40.28, individual mice", "value": "45.3 pg/mL and 52 pg/mL and 55.5 pg/mL"},
      {"measurement": "LIF (Leukemia Infabitory Factor)", "setting": "Day 27, LDD 43.6, individual mice", "value": "1650 pg/mL and 1390 pg/mL and 1470 pg/mL"},
      {"measurement": "MCP-5 (Monocyte Chemoattractant Protein-5)", "setting": "Day 27, LDD 46.38, individual mice", "value": "35.7 pg/mL and 37.1 pg/mL and 35.5 pg/mL"},
      {"measurement": "SCF (Stem Cell Factor)", "setting": "Day 27, LDD 75.17, individual mice", "value": "226 pg/mL and 207 pg/mL and 220 pg/mL"},
      {"measurement": "MIP-1beta (Macrophage Inflammatory Protein-1beta)", "setting": "Day 27, LDD 77.65, individual mice", "value": "173 pg/ml (2×) and 150 pg/ml"},
      {"measurement": "Lymphotactin", "setting": "Day 27, LDD 85.48, individual mice", "value": "198 pg/mL and 178 pg/mL and 189 pg/mL"},
      {"measurement": "VWF (Von Willebrand Factor)", "setting": "Day 27, LDD 98.6, individual mice", "value": "125 ng/mL and 131 ng/mL and 155 ng/mL"}
    ]}
  ]
}
